Test results reported in patent EP0726263A2, “Herbicidal (1,3,4)oxadiazoles and thiadiazoles” (American Cyanamid Company, priority 1995, dated 1996).

Tests used:
Assay type in all cases: in vivo
Veronica persica [1] = test: Herbicidal activity, postemergence test; conditions: post; sprayed onto seedling plants, 800 g of active material per hectare; evaluated 2 weeks after treatment
Description: (§1) To evaluate their herbicidal activity, compounds according to the invention are tested using a representative range of plants: TRZAW Triticum aestivum HORVW Hordeum vulgare ZEAMX Zea mays GOSHI Gossypium hirsutum HELAN Helianthus annuus GLYMA Glycine max ALOMY Alopecurus myosuroides SETVI Setaria viridis ECHCG Echinochloa crus-galli GALAP Galium aparine STEME Stellaria media VERPE Veronica persica VIOAR Viola arvensis IPOHE Ipomoea hederacea LAMPU Lamium purpureum PAPRH Papaver rhoeas MATIN Matricaria inodora AMARE Amaranthus retroflexus ABUTH Abutilon theophrasti AMBEL Ambrosia artemisifolia CHEAL Chenopodium album
(§2) The tests fall into two categories, preemergence and postemergence. The preemergence tests involve spraying a liquid formulation of the compound onto the soil in which the seeds have recently been sown. The postemergence tests involve spraying a liquid formulation of the compound onto seedling plants.
(§3) The soil used in the tests is a prepared horticultural loam.
(§4) The formulations used in the tests are prepared from solutions of the test compounds in acetone containing 0.4% by weight of an alkylphenol/ethylene oxide condensate available under the trade mark TRITON X-155. These acetone solutions are diluted with water and the resulting formulations applied at dosage levels corresponding to 800 g of active material per hectare in a volume equivalent to 900 litres per hectare.
(§5) In the preemergence tests untreated sown soil and in the postemergence tests untreated soil bearing seedling plants are used as controls.
(§6) Results of herbicide evaluation are expressed on a rating scale (0-9). The scale is based upon a visual observation of plant stand, vigor, malformation, size, chlorosis, and general plant appearance as compared to a control. Preemergence and postemergence treatments are evaluated at 3 and 2 weeks after treatment, respectively.

Stellaria media [2] = test: Herbicidal activity, postemergence test; conditions: post; sprayed onto seedling plants, 800 g of active material per hectare; evaluated 2 weeks after treatment
Description: as §1, §2, §3, §4, §5, §6

Papaver rhoeas [3] = test: Herbicidal activity, postemergence test; conditions: post; sprayed onto seedling plants, 800 g of active material per hectare; evaluated 2 weeks after treatment
Description: as §1, §2, §3, §4, §5, §6

Triticum aestivum [4] = test: Herbicidal activity, postemergence test; conditions: post; sprayed onto seedling plants, 800 g of active material per hectare; evaluated 2 weeks after treatment
Description: as §1, §2, §3, §4, §5, §6

Glycine max [5] = test: Herbicidal activity, postemergence test; conditions: post; sprayed onto seedling plants, 800 g of active material per hectare; evaluated 2 weeks after treatment
Description: as §1, §2, §3, §4, §5, §6

Ipomoea hederacea [6] = test: Herbicidal activity, postemergence test; conditions: post; sprayed onto seedling plants, 800 g of active material per hectare; evaluated 2 weeks after treatment
Description: as §1, §2, §3, §4, §5, §6

Setaria viridis [7] = test: Herbicidal activity, postemergence test; conditions: post; sprayed onto seedling plants, 800 g of active material per hectare; evaluated 2 weeks after treatment
Description: as §1, §2, §3, §4, §5, §6

Gossypium hirsutum [8] = test: Herbicidal activity, postemergence test; conditions: post; sprayed onto seedling plants, 800 g of active material per hectare; evaluated 2 weeks after treatment
Description: as §1, §2, §3, §4, §5, §6

Ambrosia artemisifolia [9] = test: Herbicidal activity, postemergence test; conditions: post; sprayed onto seedling plants, 800 g of active material per hectare; evaluated 2 weeks after treatment
Description: as §1, §2, §3, §4, §5, §6

Amaranthus retroflexus [10] = test: Herbicidal activity, postemergence test; conditions: post; sprayed onto seedling plants, 800 g of active material per hectare; evaluated 2 weeks after treatment
Description: as §1, §2, §3, §4, §5, §6

Chenopodium album [11] = test: Herbicidal activity, postemergence test; conditions: post; sprayed onto seedling plants, 800 g of active material per hectare; evaluated 2 weeks after treatment
Description: as §1, §2, §3, §4, §5, §6

Galium aparine [12] = test: Herbicidal activity, postemergence test; conditions: post; sprayed onto seedling plants, 800 g of active material per hectare; evaluated 2 weeks after treatment
Description: as §1, §2, §3, §4, §5, §6

Alopecurus myosuroides [13] = test: Herbicidal activity, postemergence test; conditions: post; sprayed onto seedling plants, 800 g of active material per hectare; evaluated 2 weeks after treatment
Description: as §1, §2, §3, §4, §5, §6

Lamium purpureum [14] = test: Herbicidal activity, postemergence test; conditions: post; sprayed onto seedling plants, 800 g of active material per hectare; evaluated 2 weeks after treatment
Description: as §1, §2, §3, §4, §5, §6

Matricaria inodora [15] = test: Herbicidal activity, postemergence test; conditions: post; sprayed onto seedling plants, 800 g of active material per hectare; evaluated 2 weeks after treatment
Description: as §1, §2, §3, §4, §5, §6

Zea mays [16] = test: Herbicidal activity, postemergence test; conditions: post; sprayed onto seedling plants, 800 g of active material per hectare; evaluated 2 weeks after treatment
Description: as §1, §2, §3, §4, §5, §6

Hordeum vulgare [17] = test: Herbicidal activity, postemergence test; conditions: post; sprayed onto seedling plants, 800 g of active material per hectare; evaluated 2 weeks after treatment
Description: as §1, §2, §3, §4, §5, §6

Abutilon theophrasti [18] = test: Herbicidal activity, postemergence test; conditions: post; sprayed onto seedling plants, 800 g of active material per hectare; evaluated 2 weeks after treatment
Description: as §1, §2, §3, §4, §5, §6

Veronica persica [19] = test: Herbicidal activity, preemergence test; conditions: pre; sprayed onto soil, 800 g of active material per hectare; evaluated 3 weeks after treatment
Description: as §1, §2, §3, §4, §5, §6

Stellaria media [20] = test: Herbicidal activity, preemergence test; conditions: pre; sprayed onto soil, 800 g of active material per hectare; evaluated 3 weeks after treatment
Description: as §1, §2, §3, §4, §5, §6

Papaver rhoeas [21] = test: Herbicidal activity, preemergence test; conditions: pre; sprayed onto soil, 800 g of active material per hectare; evaluated 3 weeks after treatment
Description: as §1, §2, §3, §4, §5, §6

Triticum aestivum [22] = test: Herbicidal activity, preemergence test; conditions: pre; sprayed onto soil, 800 g of active material per hectare; evaluated 3 weeks after treatment
Description: as §1, §2, §3, §4, §5, §6

Glycine max [23] = test: Herbicidal activity, preemergence test; conditions: pre; sprayed onto soil, 800 g of active material per hectare; evaluated 3 weeks after treatment
Description: as §1, §2, §3, §4, §5, §6

Ipomoea hederacea [24] = test: Herbicidal activity, preemergence test; conditions: pre; sprayed onto soil, 800 g of active material per hectare; evaluated 3 weeks after treatment
Description: as §1, §2, §3, §4, §5, §6

Setaria viridis [25] = test: Herbicidal activity, preemergence test; conditions: pre; sprayed onto soil, 800 g of active material per hectare; evaluated 3 weeks after treatment
Description: as §1, §2, §3, §4, §5, §6

Gossypium hirsutum [26] = test: Herbicidal activity, preemergence test; conditions: pre; sprayed onto soil, 800 g of active material per hectare; evaluated 3 weeks after treatment
Description: as §1, §2, §3, §4, §5, §6

Ambrosia artemisifolia [27] = test: Herbicidal activity, preemergence test; conditions: pre; sprayed onto soil, 800 g of active material per hectare; evaluated 3 weeks after treatment
Description: as §1, §2, §3, §4, §5, §6

Amaranthus retroflexus [28] = test: Herbicidal activity, preemergence test; conditions: pre; sprayed onto soil, 800 g of active material per hectare; evaluated 3 weeks after treatment
Description: as §1, §2, §3, §4, §5, §6

Chenopodium album [29] = test: Herbicidal activity, preemergence test; conditions: pre; sprayed onto soil, 800 g of active material per hectare; evaluated 3 weeks after treatment
Description: as §1, §2, §3, §4, §5, §6

Galium aparine [30] = test: Herbicidal activity, preemergence test; conditions: pre; sprayed onto soil, 800 g of active material per hectare; evaluated 3 weeks after treatment
Description: as §1, §2, §3, §4, §5, §6

Alopecurus myosuroides [31] = test: Herbicidal activity, preemergence test; conditions: pre; sprayed onto soil, 800 g of active material per hectare; evaluated 3 weeks after treatment
Description: as §1, §2, §3, §4, §5, §6

Lamium purpureum [32] = test: Herbicidal activity, preemergence test; conditions: pre; sprayed onto soil, 800 g of active material per hectare; evaluated 3 weeks after treatment
Description: as §1, §2, §3, §4, §5, §6

Matricaria inodora [33] = test: Herbicidal activity, preemergence test; conditions: pre; sprayed onto soil, 800 g of active material per hectare; evaluated 3 weeks after treatment
Description: as §1, §2, §3, §4, §5, §6

Zea mays [34] = test: Herbicidal activity, preemergence test; conditions: pre; sprayed onto soil, 800 g of active material per hectare; evaluated 3 weeks after treatment
Description: as §1, §2, §3, §4, §5, §6

Hordeum vulgare [35] = test: Herbicidal activity, preemergence test; conditions: pre; sprayed onto soil, 800 g of active material per hectare; evaluated 3 weeks after treatment
Description: as §1, §2, §3, §4, §5, §6

Abutilon theophrasti [36] = test: Herbicidal activity, preemergence test; conditions: pre; sprayed onto soil, 800 g of active material per hectare; evaluated 3 weeks after treatment
Description: as §1, §2, §3, §4, §5, §6

Row | SMILES | VERPE control rating (0-9) (Veronica persica [1]) | STEME control rating (0-9) (Stellaria media [2]) | PAPRH control rating (0-9) (Papaver rhoeas [3]) | TRZAW control rating (0-9) (Triticum aestivum [4]) | GLXMA control rating (0-9) (Glycine max [5]) | IPOHE control rating (0-9) (Ipomoea hederacea [6]) | SETVI control rating (0-9) (Setaria viridis [7]) | GOSHI control rating (0-9) (Gossypium hirsutum [8]) | AMBEL control rating (0-9) (Ambrosia artemisifolia [9]) | AMARE control rating (0-9) (Amaranthus retroflexus [10]) | CHEAL control rating (0-9) (Chenopodium album [11]) | GALAP control rating (0-9) (Galium aparine [12]) | ALOMY control rating (0-9) (Alopecurus myosuroides [13]) | LAMPU control rating (0-9) (Lamium purpureum [14]) | MATIN control rating (0-9) (Matricaria inodora [15]) | ZEAMX control rating (0-9) (Zea mays [16]) | HORVW control rating (0-9) (Hordeum vulgare [17]) | ABUTH control rating (0-9) (Abutilon theophrasti [18]) | VERPE control rating (0-9) (Veronica persica [19]) | STEME control rating (0-9) (Stellaria media [20]) | further results
1 | C[C@H](NC(=O)c1nnc(-c2ccc(F)cc2F)o1)c1ccccc1 [Example 32] | 9 (complete kill) | 9 (complete kill) | 9 (complete kill) | 3 (moderate effect) | 5 (definite injury) | 9 (complete kill) | 9 (complete kill) | 9 (complete kill) | 8 (approaching complete kill) | 8 (approaching complete kill) | 9 (complete kill) | 6 (herbicidal effect) | 3 (moderate effect) | 9 (complete kill) | 9 (complete kill) | 3 (moderate effect) | 3 (moderate effect) | 8 (approaching complete kill) | 9 (complete kill) | 9 (complete kill) | PAPRH control rating (0-9) (Papaver rhoeas [21]): 8 (approaching complete kill); TRZAW control rating (0-9) (Triticum aestivum [22]): 0 (no effect); GLXMA control rating (0-9) (Glycine max [23]): 0 (no effect); IPOHE control rating (0-9) (Ipomoea hederacea [24]): 0 (no effect); SETVI control rating (0-9) (Setaria viridis [25]): 9 (complete kill); GOSHI control rating (0-9) (Gossypium hirsutum [26]): 0 (no effect); AMBEL control rating (0-9) (Ambrosia artemisifolia [27]): 1 (trace effect); AMARE control rating (0-9) (Amaranthus retroflexus [28]): 9 (complete kill); CHEAL control rating (0-9) (Chenopodium album [29]): 8 (approaching complete kill); GALAP control rating (0-9) (Galium aparine [30]): 2 (slight effect); ALOMY control rating (0-9) (Alopecurus myosuroides [31]): 3 (moderate effect); LAMPU control rating (0-9) (Lamium purpureum [32]): 8 (approaching complete kill); MATIN control rating (0-9) (Matricaria inodora [33]): 9 (complete kill); ZEAMX control rating (0-9) (Zea mays [34]): 0 (no effect); HORVW control rating (0-9) (Hordeum vulgare [35]): 0 (no effect); ABUTH control rating (0-9) (Abutilon theophrasti [36]): 2 (slight effect)
2 | O=C(NCc1ccccc1)c1nnc(-c2ccc(F)cc2)o1 [Example 9] | 0 (no effect) | 0 (no effect) | 0 (no effect) | 0 (no effect) | 0 (no effect) | 0 (no effect) | 0 (no effect) | 0 (no effect) | 0 (no effect) | 0 (no effect) | 0 (no effect) | 0 (no effect) | 0 (no effect) | 0 (no effect) | 0 (no effect) | 0 (no effect) | 0 (no effect) | 3 (moderate effect) | 7 (good herbicidal effect) | 0 (no effect) | PAPRH control rating (0-9) (Papaver rhoeas [21]): 6 (herbicidal effect); TRZAW control rating (0-9) (Triticum aestivum [22]): 0 (no effect); GLXMA control rating (0-9) (Glycine max [23]): 1 (trace effect); IPOHE control rating (0-9) (Ipomoea hederacea [24]): 0 (no effect); SETVI control rating (0-9) (Setaria viridis [25]): 3 (moderate effect); GOSHI control rating (0-9) (Gossypium hirsutum [26]): 0 (no effect); AMBEL control rating (0-9) (Ambrosia artemisifolia [27]): 0 (no effect); AMARE control rating (0-9) (Amaranthus retroflexus [28]): 0 (no effect); CHEAL control rating (0-9) (Chenopodium album [29]): 0 (no effect); GALAP control rating (0-9) (Galium aparine [30]): 0 (no effect); ALOMY control rating (0-9) (Alopecurus myosuroides [31]): 0 (no effect); LAMPU control rating (0-9) (Lamium purpureum [32]): 0 (no effect); MATIN control rating (0-9) (Matricaria inodora [33]): 0 (no effect); ZEAMX control rating (0-9) (Zea mays [34]): 0 (no effect); HORVW control rating (0-9) (Hordeum vulgare [35]): 0 (no effect); ABUTH control rating (0-9) (Abutilon theophrasti [36]): 0 (no effect)
